Laboratory results as given in the supplement of paper PMC11061612.

How the values were obtained:
[1] = compound: C=CCn1c(=O)c2cnc(Nc3ccc(N4CCN(C)CC4)cc3)nc2n1-c1cccc(C(C)(C)O)n1 [AZD1775]; details: max 3 µM
Outline: (§1)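 Plates with 1536 wells received cancer cell lines in 7.5 μl of DMEM/F12 or RPMI containing 10% FBS. After 24 hours at 37°C and 5% CO2, cells were dosed for 72 hours with final DMSO typically 0.2%, and viability was read by CellTiter-Glo 2.0 luminescence scaled between blank-well and DMSO-well means. The single-agent IC50 was taken from a logistic fit of the dose responses made with a non-linear mixed effects model, that logistic curve having two parameters.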

[2] = compound: N#Cc1cnc(Nc2cc(NC[C@H]3CNCCO3)c(C(F)(F)F)cn2)cn1 [SRA737]; details: max 10 µM
Outline: as §1

[3] = compound: CS(=O)(=O)CCNCc1ccc(-c2ccc3ncnc(Nc4ccc(OCc5cccc(F)c5)c(Cl)c4)c3c2)o1 [Lapatinib]; details: max 10 µM
Outline: as §1

[4] = compound: CN(CC[C@H](CSC1=CC=CC=C1)NC2=C(C=C(C=C2)S(=O)(=O)NC(=O)C3=CC=C(C=C3)N4CCC(CC4)[C@H](C5=CC=CC=C5C6=CC=C(C=C6)Cl)O)S(=O)(=O)C(F)(F)F)CCO [AZD4320]; details: max 1 µM
Outline: as §1

[5] = compound: CCc1c2c(nc3ccc(O)cc13)-c1cc3c(c(=O)n1C2)COC(=O)[C@]3(O)CC [SN-38]; details: max 0.3 µM
Outline: as §1

[6] = compound: C1CC(C1)(C(=O)[O-])C(=O)[O-].N.N.[Pt+2] [Carboplatin]; details: max 10 µM
Outline: as §1

[7] = compound: COc1cc2ncnc(Nc3ccc(F)c(Cl)c3)c2cc1OCCCN1CCOCC1 [Gefitinib]; details: max 10 µM
Outline: as §1

[8] = compound: CC(=O)c1c(C)c2cnc(Nc3ccc(N4CCNCC4)cn3)nc2n(C2CCCC2)c1=O [Palbociclib]; details: max 10 µM
Outline: as §1

[9] = compound: CC1=C(C(=CC=C1)Cl)NC(=O)C2=CN=C(S2)NC3=CC(=NC(=N3)C)N4CCN(CC4)CCO [Dasatinib]; details: max 2 µM
Outline: as §1

[10] = compound: CC(=O)Nc1cccc(-n2c(=O)n(C3CC3)c(=O)c3c(Nc4ccc(I)cc4F)n(C)c(=O)c(C)c32)c1 [Trametinib]; details: max 1 µM
Outline: as §1

[11] = compound: C1CN(CCC1(C(=O)N[C@@H](CCO)C2=CC=C(C=C2)Cl)N)C3=NC=NC4=C3C=CN4 [AZD5363]; details: max 10 µM
Outline: as §1

[12] = compound: COc1nnc2ccc(N3CCC(c4ccc(OCCN5CCN(C)C(=O)[C@H]5C)cc4)CC3)nn12 [AZD5153]; details: max 1 µM
Outline: as §1

[13] = compound: NC1(c2ccc(-c3nc4ccn5c(=O)[nH]nc5c4cc3-c3ccccc3)cc2)CCC1 [MK-2206]; details: max 10 µM
Outline: as §1

[14] = compound: CC(C)n1c(=O)n(C)c2cnc3cc(F)c(-c4ccc(OCCCN5CCCCC5)nc4)cc3c21 [AZD1390]; details: max 0.3 µM
Outline: as §1

[15] = compound: O=C(c1cc(Cc2n[nH]c(=O)c3ccccc23)ccc1F)N1CCN(C(=O)C2CC2)CC1 [Olaparib]; details: max 10 µM
Outline: as §1

[16] = compound: O=C(Nc1ccc2[nH]nc(-c3ccncc3)c2c1)[C@@H]1CCN(CC(=O)N2CCN(c3ccc(-c4ncccn4)cc3)CC2)C1; details: max 5 µM
Outline: as §1

[17] = compound: C[C@@H](c1ccc2nccn2c1)n1nnc2ncc(-c3cnn(C)c3)nc21 [Savolitinib]; details: max 1 µM
Outline: as §1

[18] = compound: Cn1cnc2c(F)c(Nc3ccc(Br)cc3Cl)c(C(=O)NOCCO)cc21 [Selumetinib]; details: max 10 µM
Outline: as §1

[19] = compound: COc1cc([C@@H]2c3cc4c(cc3[C@@H](O[C@@H]3O[C@@H]5CO[C@@H](C)O[C@H]5[C@H](O)[C@H]3O)[C@H]3COC(=O)[C@H]23)OCO4)cc(OC)c1O [Etoposide]; details: max 10 µM
Outline: as §1

[20] = compound: C[C@@H](Oc1cc(-c2cnn(C3CCNCC3)c2)cnc1N)c1c(Cl)ccc(F)c1Cl [Crizotinib]; details: max 10 µM
Outline: as §1

[21] = compound: Cc1cc2ncnn2cc1Nc1ncc2c(n1)n(C1CCOCC1)c(=O)n2C [AZD7648]; details: max 10 µM
Outline: as §1

[22] = compound: CCN(CCO)CCCOc1ccc2c(Nc3cc(CC(=O)Nc4cccc(F)c4)[nH]n3)ncnc2c1 [AZD2811]; details: max 1 µM
Outline: as §1

[23] = compound: Nc1ccn([C@@H]2O[C@H](CO)[C@@H](O)C2(F)F)c(=O)n1 [Gemcitabine]; details: max 0.3 µM
Outline: as §1

[24] = compound: CC1(C)CCC(CN2CCN(c3ccc(C(=O)NS(=O)(=O)c4ccc(NCC5CCOCC5)c([N+](=O)[O-])c4)c(Oc4cnc5[nH]ccc5c4)c3)CC2)=C(c2ccc(Cl)cc2)C1 [Venetoclax]; details: max 1 µM
Outline: as §1

[25] = compound: COc1cccc2c1C(=O)c1c(O)c3c(c(O)c1C2=O)C[C@@](O)(C(=O)CO)C[C@@H]3O[C@H]1C[C@H](N)[C@H](O)[C@H](C)O1 [Doxorubicin]; details: max 1 µM
Outline: as §1

[26] = compound: C[C@@H](Nc1cc(F)cc(F)c1)c1cc(C(=O)N(C)C)cc2c(=O)cc(N3CCOCC3)oc12 [AZD8186]; details: max 10 µM
Outline: as §1

[27] = compound: COc1cccc(OCCCN)c1-c1cc(Nc2cnc(C#N)cn2)n[nH]1 [Prexasertib]; details: max 1 µM
Outline: as §1

[28] = compound: CC1=CN2[C@@H](C1)C=NC3=CC(=C(C=C3C2=O)OC)OCCCCCOC4=C(C=C5C(=C4)N=C[C@@H]6CC(=CN6C5=O)C)OC [SG3199]; details: max 0.001 µM
Outline: as §1

[29] = compound: COc1cc(Nc2ncc3c(n2)-c2ccc(Cl)cc2C(c2c(F)cccc2OC)=NC3)ccc1C(=O)O [Alisertib]; details: max 10 µM
Outline: as §1

[30] = compound: Cc1c2c(nn1C)CSCc1cc(n(C)n1)CSc1cc(c3ccccc3c1)OCCCc1c(C(=O)O)n(C)c3c-2c(Cl)ccc13 [AZD5991]; details: max 1 µM
Outline: as §1

[31] = compound: CN(C)CCCOc1ccc(-c2ccc3ncc4c(c3c2)n(C2CCOCC2)c(=O)n4C)cn1 [AZD0156]; details: max 3 µM
Outline: as §1

[32] = compound: CC(=O)O[C@H]1C(=O)[C@@]2(C)[C@H]([C@H](OC(=O)c3ccccc3)[C@]3(O)C[C@H](OC(=O)[C@H](O)[C@@H](NC(=O)c4ccccc4)c4ccccc4)C(C)=C1C3(C)C)[C@]1(OC(C)=O)CO[C@@H]1C[C@@H]2O [Paclitaxel]; details: max 3 µM
Outline: as §1

[33] = compound: O=c1[nH]cc(F)c(=O)[nH]1 [5-Fluorouracil]; details: max 20 µM
Outline: as §1

[34] = compound: Cc1nc(-c2cn3c(n2)-c2ccc(-c4cnn(C(C)(C)C(N)=O)c4)cc2OCC3)n(C(C)C)n1 [Taselisib]; details: max 10 µM
Outline: as §1

[35] = compound: C[C@@H]1COCCN1C2=NC(=NC(=C2)C3(CC3)[S@](=N)(=O)C)C4=C5C=CNC5=NC=C4 [AZD6738]; details: max 10 µM
Outline: as §1

| Cell Line | IC50, cell viability 72 h [1] [µM] | IC50, cell viability 72 h [2] [µM] | IC50, cell viability 72 h [3] [µM] | IC50, cell viability 72 h [4] [µM] | IC50, cell viability 72 h [5] [µM] | IC50, cell viability 72 h [6] [µM] | IC50, cell viability 72 h [7] [µM] | IC50, cell viability 72 h [8] [µM] | IC50, cell viability 72 h [9] [µM] | IC50, cell viability 72 h [10] [µM] | IC50, cell viability 72 h [11] [µM] | IC50, cell viability 72 h [12] [µM] | IC50, cell viability 72 h [13] [µM] | IC50, cell viability 72 h [14] [µM] | IC50, cell viability 72 h [15] [µM] | IC50, cell viability 72 h [16] [µM] | IC50, cell viability 72 h [17] [µM] | IC50, cell viability 72 h [18] [µM] | IC50, cell viability 72 h [19] [µM] | IC50, cell viability 72 h [20] [µM] | IC50, cell viability 72 h [21] [µM] | IC50, cell viability 72 h [22] [µM] | IC50, cell viability 72 h [23] [µM] | IC50, cell viability 72 h [24] [µM] | IC50, cell viability 72 h [25] [µM] | IC50, cell viability 72 h [26] [µM] | IC50, cell viability 72 h [27] [µM] | IC50, cell viability 72 h [28] [µM] | IC50, cell viability 72 h [29] [µM] | IC50, cell viability 72 h [30] [µM] | IC50, cell viability 72 h [31] [µM] | IC50, cell viability 72 h [32] [µM] | IC50, cell viability 72 h [33] [µM] | IC50, cell viability 72 h [34] [µM] | IC50, cell viability 72 h [35] [µM] |
| --- | --- | --- | --- | --- | --- | --- | --- | --- | --- | --- | --- | --- | --- | --- | --- | --- | --- | --- | --- | --- | --- | --- | --- | --- | --- | --- | --- | --- | --- | --- | --- | --- | --- | --- | --- |
| MONO-MAC-6 (Acute Myeloid Leukemia) | 0.535 | 3.35 | > 10 | > 1 | 0.00764 | > 10 | > 10 | > 10 | > 2 | 0.446 | 5.27 | 0.0306 | 4.14 | > 0.3 | > 10 | 2.1 | > 1 | > 10 | 2.85 | 2.98 | > 10 | 0.303 | 0.00443 | > 1 | 0.127 | 6.44 | 0.052 | > 0.001 | 2.09 | 0.0678 | > 3 | 0.00721 | 1.63 | 4.75 | 3.4 |
| MS-1 (Small Cell Lung Carcinoma) | 0.531 | 9.42 | > 10 | > 1 | 0.0577 | > 10 | > 10 | > 10 | > 2 | > 1 | > 10 | 0.12 | > 10 | > 0.3 | > 10 | > 5 | > 1 | > 10 | 7.2 | 6.28 | > 10 | > 1 | 0.197 | > 1 | 0.244 | > 10 | 0.022 | > 0.001 | > 10 | > 1 | > 3 | 0.104 | > 20 | > 10 | 4.38 |
